Converted amounts (≈) assume the structure as drawn.
How the values were obtained:
HCMV wild-type = test: HCMV yield assay; type: cell-based, human cytomegalovirus; settings: human foreskin fibroblasts; for IC50: Human betaherpesvirus 5, Fibroblast, read-out: IC50 Ug/ml HCMV
How it was run: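 Value is the compound amount cutting virus yield titer by 50% (IC50) or 90% (IC90). Human foreskin fibroblasts infected with wild-type HCMV (MOI typically 0.2) under varying compound; progeny harvested day 3, titered compound-free on fibroblasts, plaques scored at 2 weeks.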

HSV-1 = test: HSV Antiviral (ELISA) Assay; type: cell-based, herpes simplex virus type 1; settings: Vero cells, HSV-1; for IC50: Human alphaherpesvirus 1, Vero, read-out: IC50 Ug/ml HSV
How it was run: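 Replication measured as glycoprotein D signal in fixed cells: anti-gD antibody plus β-galactosidase-linked secondary, fluorogenic substrate read at 365/450 nm. Vero cells (2% FBS DMEM) received compound 30 min pre-infection, HSV-1 MOI 0.006, ~24 h incubation; IC50 relative to no-compound fluorescence.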

VZV strain Ellen = test: VZV Antiviral (ELISA) Assay; type: cell-based, varicella-zoster virus; settings: human foreskin fibroblast cells; for IC50 / inhibition at 10 µg/mL: Human alphaherpesvirus 3, Fibroblast; for IC50: read-out: IC50 Ug/ml VZV; for inhibition at 10 µg/mL: read-out: % inhibition 10 ug/ml VZV, 10 ug/ml
How it was run: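 First, fibroblasts are infected at multiplicity below 0.1 and kept overnight. The harvested cell mixture then goes onto compound-containing wells for three days at 37° C. Finally, cells are fixed and viral gpII is measured by fluorogenic ELISA.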

COc1cc(N2CCCC2)c(NC(=S)Nc2ccc(NC(C)=O)cc2)cc1Cl [Example 228, N-{4-[3-(5-Chloro-4-methoxy-2-pyrrolidin-1-yl-phenyl)-thioureido]-phenyl}-acetamide]
IC50 (HCMV wild-type): > 10 µg/mL
IC50 (HSV-1): 3 µg/mL (≈ 7.16 µM)
IC50 (VZV strain Ellen): > 10 µg/mL
inhibition at 10 µg/mL (VZV strain Ellen): 35%

COc1cc(OC)c(NC(=S)Nc2ccc(NC(C)=O)c(C(=O)c3ccccc3)c2)cc1Cl [Example 292, N-{2-Benzoyl-4-[3-(5-chloro-2,4-dimethoxy-phenyl)-thioureido]-phenyl}-acetamide]
IC50 (HCMV wild-type): > 10 µg/mL
IC50 (HSV-1): > 50 µg/mL
IC50 (VZV strain Ellen): 13 µg/mL (≈ 26.9 µM)
inhibition at 10 µg/mL (VZV strain Ellen): 70%

CC(=O)Nc1ccc(NC(=S)Nc2ccc(Oc3ccc(Cl)cc3S(=O)(=O)O)c(Cl)c2)cc1 [Example 262, 2-{4-[3-(4-Acetylamino-phenyl)-thioureido]-2-chloro-phenoxy}-5-chloro-benzenesulfonic acid]
IC50 (HCMV wild-type): > 50 µg/mL
IC50 (HSV-1): > 50 µg/mL
IC50 (VZV strain Ellen): > 10 µg/mL
inhibition at 10 µg/mL (VZV strain Ellen): 15%

CC(=O)Nc1ccc(NC(=S)Nc2ccc(OCCCN(C)C)c(Cl)c2)cc1 [Example 336, N-(4-{3-[3-Chloro-4-(3-dimethylamino-propoxy)-phenyl]-thioureido}-phenyl)-acetamide]
IC50 (HCMV wild-type): 50 µg/mL (≈ 119 µM)
IC50 (HSV-1): 40 µg/mL (≈ 95 µM)
IC50 (VZV strain Ellen): > 10 µg/mL
inhibition at 10 µg/mL (VZV strain Ellen): 17%

COc1cc(OCCO)c(NC(=S)Nc2ccc(NC(C)=O)cc2)cc1Cl [Example 214, N-(4-{3-[5-Chloro-2-(2-hydroxy-ethoxy)-4-methoxy-phenyl]-thioureido}-phenyl)-acetamide]
IC50 (HCMV wild-type): > 10 µg/mL
IC50 (HSV-1): 20 µg/mL (≈ 48.8 µM)
IC50 (VZV strain Ellen): > 10 µg/mL
inhibition at 10 µg/mL (VZV strain Ellen): 20%

CC(=O)Nc1ccc(NC(=S)Nc2ccc(NCCN(C)C)c(Cl)c2)cc1 [Example 316, N-(4-{3-[3-Chloro-4-(2-dimethylamino-ethylamino)-phenyl]-thioureido}-phenyl)-acetamide]
IC50 (HCMV wild-type): > 50 µg/mL
IC50 (HSV-1): 30 µg/mL (≈ 73.9 µM)
IC50 (VZV strain Ellen): > 10 µg/mL
inhibition at 10 µg/mL (VZV strain Ellen): 56%

CC(=O)Nc1ccc(NC(=S)Nc2ccc(C(F)(F)F)c(Cl)c2)cc1 [Example 908, N-{4-[3-(3-Chloro-4-trifluoromethyl-phenyl)-thioureido]-phenyl}-acetamide]
IC50 (HCMV wild-type): 0.6 µg/mL (≈ 1.55 µM)
IC50 (HSV-1): > 10 µg/mL
IC50 (VZV strain Ellen): > 10 µg/mL
inhibition at 10 µg/mL (VZV strain Ellen): 36%

CC(=O)Nc1ccc(NC(=S)Nc2cc(Cl)ccc2C)cc1 [Example 890, N-{4-[3-(5-Chloro-2-methyl-phenyl)-thioureido]-phenyl}-acetamide]
IC50 (HCMV wild-type): 35 µg/mL (≈ 105 µM)
IC50 (HSV-1): 20 µg/mL (≈ 59.9 µM)
IC50 (VZV strain Ellen): > 10 µg/mL
inhibition at 10 µg/mL (VZV strain Ellen): 20%

COc1cc(OCC(=O)OC(C)(C)C)c(NC(=S)Nc2ccc(NC(C)=O)cc2)cc1Cl [Example 218, {2-[3-(4-Acetylamino-phenyl)-thioureido]-4-chloro-5-methoxy-phenoxy}-acetic acid tert-butyl ester]
IC50 (HCMV wild-type): > 10 µg/mL
IC50 (HSV-1): 15 µg/mL (≈ 31.3 µM)
IC50 (VZV strain Ellen): > 10 µg/mL
inhibition at 10 µg/mL (VZV strain Ellen): 18%

CC(=O)Nc1ccc(NC(=S)Nc2ccc(NCc3ccccc3)c(Cl)c2)cc1 [Example 241, N-{4-[3-(4-Benzylamino-3-chloro-phenyl)-thioureido]-phenyl}-acetamide]
IC50 (HCMV wild-type): 2 µg/mL (≈ 4.71 µM)
IC50 (HSV-1): 10 µg/mL (≈ 23.5 µM)
IC50 (VZV strain Ellen): > 10 µg/mL
inhibition at 10 µg/mL (VZV strain Ellen): 24%

COc1ccc(NC(=S)Nc2ccc(NC(C)=O)cc2)cc1C(F)(F)F [Example 290, N-{4-[3-(4-Methoxy-3-trifluoromethyl-phenyl)-thioureido]-phenyl}-acetamide]
IC50 (HCMV wild-type): 5 µg/mL (≈ 13 µM)
IC50 (HSV-1): > 50 µg/mL
IC50 (VZV strain Ellen): > 10 µg/mL
inhibition at 10 µg/mL (VZV strain Ellen): 1%

N-{4-[3-(4-Acetylamino-phenyl)-thioureido]-2-chloro-phenyl}-2-dipropylamino-acetamide [Example 410]
IC50 Ug/ml HCMV (HCMV wild-type): >10 Ug/ml
IC50 Ug/ml HSV (HSV-1): >10 Ug/ml
% inhibition 10 ug/ml VZV (VZV strain Ellen): 26%
IC50 Ug/ml VZV (VZV strain Ellen): >10 Ug/ml

N-{4-[3-(5-Chloro-2,4-dimethoxy-phenyl)-thioureido]-3-methoxy-phenyl}-acetamide [Example 388]
IC50 Ug/ml HCMV (HCMV wild-type): >10 Ug/ml
IC50 Ug/ml HSV (HSV-1): 0.6 Ug/ml
% inhibition 10 ug/ml VZV (VZV strain Ellen): 52%
IC50 Ug/ml VZV (VZV strain Ellen): >10 Ug/ml

COc1ccc(NC(=S)Nc2ccc(NC(C)=O)cc2)c(O)c1 [Example 132, N-{4-[3-(2-Hydroxy-4-methoxy-phenyl)-thioureido]-phenyl}-acetamide]
IC50 (HCMV wild-type): > 50 µg/mL
IC50 (HSV-1): > 50 µg/mL
IC50 (VZV strain Ellen): > 10 µg/mL
inhibition at 10 µg/mL (VZV strain Ellen): 11%

CC(=O)Nc1ccc(NC(=S)Nc2cc(C(F)(F)F)ccc2Cl)cc1 [Example 111, N-{4-[3-(2-Chloro-5-trifluoromethyl-phenyl)-thioureido]-phenyl}-acetamide]
IC50 (HCMV wild-type): 12 µg/mL (≈ 30.9 µM)
IC50 (HSV-1): 15 µg/mL (≈ 38.7 µM)
IC50 (VZV strain Ellen): > 10 µg/mL
inhibition at 10 µg/mL (VZV strain Ellen): 51%

COc1cc(OCC#N)c(NC(=S)Nc2ccc(NC(C)=O)cc2)cc1Cl [Example 213, N-(4-{3-[5-Chloro-4-methoxy-2-(2-nitrilo-ethoxy)-phenyl]-thioureido}-phenyl)-acetamide]
IC50 (HCMV wild-type): 15 µg/mL (≈ 37 µM)
IC50 (HSV-1): 30 µg/mL (≈ 74.1 µM)
IC50 (VZV strain Ellen): > 10 µg/mL
inhibition at 10 µg/mL (VZV strain Ellen): 20%

CC(=O)Nc1ccc(NC(=S)Nc2ccc(NC(=O)CN3CCOCC3)c(Cl)c2)cc1 [Example 366, N-{4-[3-(4-Acetylamino-phenyl)-thioureido]-2-chloro-phenyl}-2-morpholin-4-yl-acetamide]
IC50 (HCMV wild-type): > 10 µg/mL
IC50 (HSV-1): > 10 µg/mL
IC50 (VZV strain Ellen): > 10 µg/mL
inhibition at 10 µg/mL (VZV strain Ellen): 16%

CC(=O)Nc1ccc(NC(=S)Nc2ccc(I)c(Cl)c2)cc1 [Example 903, N-{4-[3-(3-Chloro-4-iodo-phenyl)-thioureido]-phenyl}-acetamide]
IC50 (HCMV wild-type): 0.3 µg/mL (≈ 0.673 µM)
IC50 (HSV-1): 10 µg/mL (≈ 22.4 µM)
IC50 (VZV strain Ellen): > 10 µg/mL
inhibition at 10 µg/mL (VZV strain Ellen): 26%

Reference: patent US6335350B1, “Acetamide and substituted acetamide-containing thiourea inhibitors of herpes viruses” (American Home Products Corporation, priority 1998, dated 2002)
